Test results published in the Kinase Knowledgebase extract (Sharma et al. 2016).
In brackets after ≈: the same amount, converted by molar mass. One block for each compound: values may come before it.

What was measured:
[1] = target: EGFR (UniProt P00533)
[2] = target: EGFR (human) (UniProt P00533); details: mda435
[3] = target: EGFR (human) (UniProt P00533); details: a431
[4] = target: EGFR (human) (UniProt P00533); details: a2780
[5] = target: EGFR (human) (UniProt P00533); details: a2780ddp
[6] = target: EGFR (human) (UniProt P00533); details: sk-br-3
[7] = target: EGFR (human) (UniProt P00533); details: 3t3

Sequence of EGFR (P00533 whole entry, looked up): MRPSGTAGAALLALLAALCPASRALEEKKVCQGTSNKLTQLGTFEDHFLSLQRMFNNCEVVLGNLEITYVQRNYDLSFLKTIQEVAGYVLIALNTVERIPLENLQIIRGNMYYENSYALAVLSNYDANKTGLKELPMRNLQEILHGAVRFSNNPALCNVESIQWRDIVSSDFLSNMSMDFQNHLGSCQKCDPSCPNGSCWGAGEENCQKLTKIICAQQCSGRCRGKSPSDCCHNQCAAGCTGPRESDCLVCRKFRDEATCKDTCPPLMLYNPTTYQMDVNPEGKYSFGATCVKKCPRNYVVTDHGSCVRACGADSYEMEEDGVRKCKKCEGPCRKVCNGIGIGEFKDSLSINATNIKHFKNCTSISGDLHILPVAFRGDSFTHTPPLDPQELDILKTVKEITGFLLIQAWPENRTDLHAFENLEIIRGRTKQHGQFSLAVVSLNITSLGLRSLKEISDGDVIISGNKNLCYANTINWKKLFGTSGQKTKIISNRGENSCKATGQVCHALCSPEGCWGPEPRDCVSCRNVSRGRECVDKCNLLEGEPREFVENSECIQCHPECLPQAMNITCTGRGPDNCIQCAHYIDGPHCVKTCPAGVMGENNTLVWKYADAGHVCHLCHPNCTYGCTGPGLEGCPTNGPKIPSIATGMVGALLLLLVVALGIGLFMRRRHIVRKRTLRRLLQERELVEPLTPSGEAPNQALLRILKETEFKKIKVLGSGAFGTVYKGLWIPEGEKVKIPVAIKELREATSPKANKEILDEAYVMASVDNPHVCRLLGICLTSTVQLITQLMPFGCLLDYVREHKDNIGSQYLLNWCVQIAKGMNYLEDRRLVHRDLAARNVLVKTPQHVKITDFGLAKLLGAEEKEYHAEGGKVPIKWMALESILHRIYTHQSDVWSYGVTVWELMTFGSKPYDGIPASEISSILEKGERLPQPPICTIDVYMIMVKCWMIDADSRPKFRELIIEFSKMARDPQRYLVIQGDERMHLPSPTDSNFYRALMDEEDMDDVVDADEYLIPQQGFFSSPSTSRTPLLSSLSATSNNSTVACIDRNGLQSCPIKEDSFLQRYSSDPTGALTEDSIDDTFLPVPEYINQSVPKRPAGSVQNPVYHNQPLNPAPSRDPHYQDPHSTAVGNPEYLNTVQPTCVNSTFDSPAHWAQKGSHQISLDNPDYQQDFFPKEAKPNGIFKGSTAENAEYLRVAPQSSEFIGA
Sequence of EGFR (human) (P00533 whole entry, looked up): as above

SMILES: CN(C)C/C=C/C(=O)Nc1cnc2ncc(C#N)c(Nc3cccc(Br)c3)c2c1
- IC50 [1]: 0.8 µM

SMILES: N#Cc1cnc2cnc(NCCN3CCOCC3)cc2c1Nc1cccc(Br)c1
- IC50 [6]: 0.4 µg/mL (≈ 0.882 µM)
- IC50 [5]: 0.8 µg/mL (≈ 1.76 µM)

SMILES: CN(C)C/C=C/C(=O)Nc1cc2c(Nc3cccc(Br)c3)c(C#N)cnc2cn1
- IC50 [7]: 0.272 to 0.373 µg/mL (≈ 0.602 to 0.826 µM)

The remaining lines, values ahead:

- IC50 [1]: > 0.1 µM
SMILES: COc1ccc(CNc2cc3c(Nc4cccc(Br)c4)c(C#N)cnc3cn2)cc1

- IC50 [2]: 0.98 to 3.94 µg/mL (≈ 2.77 to 11.1 µM)
- IC50 [3]: 0.209 to 0.31 µg/mL (≈ 0.59 to 0.875 µM)
- IC50 [4]: 0.74 to 2.36 µg/mL (≈ 2.09 to 6.67 µM)
- IC50 [5]: 0.43 to 2.25 µg/mL (≈ 1.21 to 6.34 µM)
SMILES: CNc1cc2c(Nc3cccc(Br)c3)c(C#N)cnc2cn1

- IC50 [1]: > 10 µM
SMILES: CCOc1ccc2ncc(C#N)c(Nc3cccc(Br)c3)c2n1

- IC50 [4]: 0.06 µg/mL (≈ 0.148 µM)
SMILES: CC#CC(=O)Nc1cc2c(Nc3cccc(Br)c3)c(C#N)cnc2cn1
